Assay results reported in patent US6358885B1, “Substituted phenylheterocyclic herbicides” (Mississippi State University, priority 1992, dated 2002).

What was measured:
[1] = tested on: bedstraw; experiment: Test C preemergence/postemergence greenhouse plant response rating 0 to 100; format: in vivo, Galium aparine; settings: POSTEMERGENCE
Summary of the method: (§1)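 Compounds in non-phytotoxic solvent went onto sandy loam before emergence (seeded one day earlier) or onto plants at the one-to-four leaf stage. Duck salad was treated via flood water (~2.5 cm, maintained) over silt loam.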

[2] = tested on: giant foxtail; experiment: as above; format: in vivo, Setaria faberii; settings: POSTEMERGENCE; for Plant response rating, Giant foxtail: 0 to 100 scale
Summary of the method: as §1

[3] = tested on: downy brome; experiment: as above; format: in vivo, Bromus tectorum; settings: POSTEMERGENCE; for Plant response rating Downy Brome: 0 to 100 scale
Summary of the method: as §1

[4] = tested on: lambsquarters; experiment: as above; format: in vivo, Chenopodium album; settings: POSTEMERGENCE; for Plant response rating Lambsquarters: 0 to 100 scale
Summary of the method: as §1

[5] = tested on: crabgrass; experiment: as above; format: in vivo, Digitaria sanguinalis; settings: POSTEMERGENCE; for Plant response rating, Crabgrass: 0 to 100 scale
Summary of the method: as §1

[6] = tested on: cheatgrass; experiment: Test B preemergence/postemergence greenhouse plant response rating 0 to 10; format: in vivo, Bromus secalinus; settings: 0 to 10 scale
Summary of the method: (§2)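 Planted seeds are treated preemergence with compound dissolved in a non-phytotoxic solvent, while postemergence applications go onto plants of two to eighteen cm. Plants stay in the greenhouse twelve to sixteen days and are then rated visually relative to controls.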

[7] = tested on: cotton; experiment: as above; format: in vivo, Gossypium hirsutum; settings: 0 to 10 scale
Summary of the method: as §2

[8] = tested on: velvetleaf; experiment: Test C preemergence/postemergence greenhouse plant response rating 0 to 100; format: in vivo, Abutilon theophrasti; settings: POSTEMERGENCE; for Plant response rating, Velvetleaf: 0 to 100 scale
Summary of the method: as §1

[9] = tested on: rice; experiment: Test B preemergence/postemergence greenhouse plant response rating 0 to 10; format: in vivo, Oryza sativa; settings: 0 to 10 scale
Summary of the method: as §2

[10] = tested on: wheat; experiment: as above; format: in vivo, Triticum aestivum; settings: 0 to 10 scale
Summary of the method: as §2

[11] = tested on: corn; experiment: as above; format: in vivo, Zea mays; settings: 0 to 10 scale
Summary of the method: as §2

[12] = tested on: barnyardgrass; experiment: Test C flood test plant response rating 0 to 100; format: in vivo, Echinochloa crus-galli; settings: for Plant response rating (0 to 100), Barnyardgrass: under POSTEMERGENCE head (flood test species); for Plant response rating, Barnyardgrass: flood test species listed under POSTEMERGENCE, 0 to 100 scale
Summary of the method: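 Compounds in non-phytotoxic solvent applied preemergence to sandy loam one day after planting, postemergence at the 1–4 leaf stage, or to ~2.5 cm floodwater over silt loam.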

[13] = tested on: duck salad; experiment: Test C flood test plant response rating 0 to 100; format: in vivo, Heteranthera limosa; settings: for Plant response rating (0 to 100), Duck salad: under POSTEMERGENCE head (flood test species); for Plant response rating Duck salad: flood test species listed under POSTEMERGENCE, 0 to 100 scale
Summary of the method: as §1

[14] = tested on: sorghum; experiment: Test C preemergence/postemergence greenhouse plant response rating 0 to 100; format: in vivo, Sorghum bicolor; settings: POSTEMERGENCE; for Plant response rating, Sorghum: 0 to 100 scale
Summary of the method: as §1

[15] = tested on: sugar beet; experiment: as above; format: in vivo, Beta vulgaris; settings: POSTEMERGENCE; for Plant response rating, Sugar beet: 0 to 100 scale
Summary of the method: as §1

[16] = tested on: wild oat; experiment: Test B preemergence/postemergence greenhouse plant response rating 0 to 10; format: in vivo, Avena fatua; settings: 0 to 10 scale
Summary of the method: as §2

[17] = tested on: cotton; experiment: Test C preemergence/postemergence greenhouse plant response rating 0 to 100; format: in vivo, Gossypium hirsutum; settings: POSTEMERGENCE; for Plant response rating, Cotton: 0 to 100 scale
Summary of the method: as §1

[18] = tested on: lambsquarters; experiment: Test B preemergence/postemergence greenhouse plant response rating 0 to 10; format: in vivo, Chenopodium album; settings: 0 to 10 scale
Summary of the method: as §2

C=C(Cl)COc1cc(-c2nn3c(c2Cl)CCCC3)c(F)cc1Cl [Compound 40]
1: Plant response rating, Cotton ([7]; PREEMERGENCE, Rate 50 g/ha) | Plant response rating, Corn ([11]; Rate 200 g/ha, PREEMERGENCE)
4: Plant response rating, Cheatgrass ([6]; POSTEMERGENCE, Rate 50 g/ha) | Plant response rating, Cheatgrass ([6]; POSTEMERGENCE, Rate 200 g/ha) | Plant response rating, Cheatgrass ([6]; Rate 200 g/ha, PREEMERGENCE) | Plant response rating, Wheat ([10]; POSTEMERGENCE, Rate 50 g/ha) | Plant response rating, Corn ([11]; POSTEMERGENCE, Rate 50 g/ha) | Plant response rating, Wild oat ([16]; POSTEMERGENCE, Rate 50 g/ha)
65: Plant response rating (0 to 100), Duck salad ([13]; Rate 31 g/ha)
7: Plant response rating, Cotton ([7]; Rate 200 g/ha, PREEMERGENCE)
5: Plant response rating, Rice ([9]; POSTEMERGENCE, Rate 50 g/ha) | Plant response rating, Rice ([9]; Rate 200 g/ha, POSTEMERGENCE) | Plant response rating, Corn ([11]; POSTEMERGENCE, Rate 200 g/ha) | Plant response rating, Wild oat ([16]; Rate 200 g/ha, POSTEMERGENCE)
30: Plant response rating (0 to 100), Bedstraw ([1]; Rate 16 g/ha) | Plant response rating (0 to 100), Bedstraw ([1]; Rate 31 g/ha) | Plant response rating (0 to 100), Giant foxtail ([2]; Rate 16 g/ha) | Plant response rating (0 to 100), Downy Brome ([3]; Rate 16 g/ha) | Plant response rating, Sorghum ([14]; 62 g/ha)
60: Plant response rating, Bedstraw ([1]; 125 g/ha, 0 to 100 scale) | Plant response rating, Giant foxtail ([2]; 62 g/ha) | Plant response rating Downy Brome ([3]; 125 g/ha)
90: Plant response rating (0 to 100), Velvetleaf ([8]; Rate 16 g/ha) | Plant response rating (0 to 100), Velvetleaf ([8]; Rate 31 g/ha)
9: Plant response rating, Lambsquarter ([18]; POSTEMERGENCE, Rate 50 g/ha)
0: Plant response rating, Cheatgrass ([6]; PREEMERGENCE, Rate 50 g/ha) | Plant response rating, Rice ([9]; PREEMERGENCE, Rate 50 g/ha) | Plant response rating, Rice ([9]; Rate 200 g/ha, PREEMERGENCE) | Plant response rating, Wheat ([10]; PREEMERGENCE, Rate 50 g/ha) | Plant response rating, Corn ([11]; PREEMERGENCE, Rate 50 g/ha) | Plant response rating (0 to 100), Duck salad ([13]; Rate 16 g/ha) | Plant response rating, Wild oat ([16]; PREEMERGENCE, Rate 50 g/ha)
70: Plant response rating, Giant foxtail ([2]; 125 g/ha) | Plant response rating (0 to 100), Lambsquarters ([4]; Rate 16 g/ha) | Plant response rating (0 to 100), Lambsquarters ([4]; Rate 31 g/ha)
40: Plant response rating (0 to 100), Giant foxtail ([2]; Rate 31 g/ha) | Plant response rating (0 to 100), Downy Brome ([3]; Rate 31 g/ha)
20: Plant response rating (0 to 100), Sorghum ([14]; Rate 16 g/ha) | Plant response rating (0 to 100), Sorghum ([14]; Rate 31 g/ha)
2: Plant response rating, Wheat ([10]; Rate 200 g/ha, PREEMERGENCE)
10: Plant response rating, Crabgrass ([5]; 62 g/ha) | Plant response rating, Crabgrass ([5]; 125 g/ha) | Plant response rating (0 to 100), Crabgrass ([5]; Rate 16 g/ha) | Plant response rating (0 to 100), Crabgrass ([5]; Rate 31 g/ha) | Plant response rating, Cotton ([7]; POSTEMERGENCE, Rate 50 g/ha) | Plant response rating, Cotton ([7]; POSTEMERGENCE, Rate 200 g/ha) | Plant response rating, Lambsquarter ([18]; PREEMERGENCE, Rate 50 g/ha) | Plant response rating, Lambsquarter ([18]; Rate 200 g/ha, POSTEMERGENCE) | Plant response rating, Lambsquarter ([18]; Rate 200 g/ha, PREEMERGENCE)
85: Plant response rating Duck salad ([13]; 125 g/ha)
6: Plant response rating, Wheat ([10]; Rate 200 g/ha, POSTEMERGENCE)
50: Plant response rating Downy Brome ([3]; 62 g/ha) | Plant response rating, Sorghum ([14]; 125 g/ha)
100: Plant response rating Lambsquarters ([4]; 125 g/ha) | Plant response rating, Velvetleaf ([8]; 62 g/ha) | Plant response rating, Velvetleaf ([8]; 125 g/ha) | Plant response rating (0 to 100), Barnyardgrass ([12]; Rate 16 g/ha) | Plant response rating (0 to 100), Barnyardgrass ([12]; Rate 31 g/ha) | Plant response rating, Barnyardgrass ([12]; 62 g/ha) | Plant response rating, Barnyardgrass ([12]; 125 g/ha) | Plant response rating, Sugar beet ([15]; 62 g/ha) | Plant response rating, Sugar beet ([15]; 125 g/ha) | Plant response rating (0 to 100), Sugar beet ([15]; Rate 16 g/ha) | Plant response rating (0 to 100), Sugar beet ([15]; Rate 31 g/ha) | Plant response rating, Cotton ([17]; 62 g/ha) | Plant response rating, Cotton ([17]; 125 g/ha) | Plant response rating (0 to 100), Cotton ([17]; Rate 16 g/ha) | Plant response rating (0 to 100), Cotton ([17]; Rate 31 g/ha)
80: Plant response rating Lambsquarters ([4]; 62 g/ha) | Plant response rating Duck salad ([13]; 62 g/ha)
